From patent US20020164348A1 (priority 2000, published 2002)

Columns and labels:
[1] = target: T1, poliovirus polymerase (Poliovirus type 1, UniProt P03300)
[2] = target: T1, poliovirus polymerase; remark: listed apart in the source
[3] = target: lattices of poliovirus polymerase (Poliovirus type 1, UniProt P03300)
[4] = target: T1, poliovirus polymerase; remark: listed apart in the source

T1 sequence (P03300 1749-2209 limits assumed): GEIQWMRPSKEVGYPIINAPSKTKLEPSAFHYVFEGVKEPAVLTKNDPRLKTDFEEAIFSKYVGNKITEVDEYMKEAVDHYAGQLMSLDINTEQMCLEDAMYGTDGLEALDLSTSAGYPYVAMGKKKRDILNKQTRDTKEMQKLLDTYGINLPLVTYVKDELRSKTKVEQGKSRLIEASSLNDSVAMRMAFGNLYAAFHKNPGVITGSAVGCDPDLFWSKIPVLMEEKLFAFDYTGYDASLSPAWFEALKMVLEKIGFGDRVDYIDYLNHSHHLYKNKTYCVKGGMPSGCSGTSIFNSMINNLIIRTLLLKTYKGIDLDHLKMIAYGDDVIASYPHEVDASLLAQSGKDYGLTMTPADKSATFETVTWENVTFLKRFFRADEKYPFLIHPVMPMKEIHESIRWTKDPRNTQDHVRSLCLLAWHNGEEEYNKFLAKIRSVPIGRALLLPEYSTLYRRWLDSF
lattices of poliovirus polymerase, sequence (P03300 1749-2209 limits assumed): as above

Sequence: KPHKCTFEGCRKSYSRSTNLRRHLNSH (SEQ ID NO:5) [Peptide 1]
- cooperativity of the elongation reaction [1]: loss of cooperativity
- inhibition of poliovirus polymerase [1]: inhibits poliovirus polymerase effectively
- inhibition of the polymerase reaction [1]: marked inhibition
- amount of UTP incorporated [2]: diminished
- sheets and tubes of polymerase by electron microscopy [3]: replaced by large aggregates and more narrow ribbons
- UTP incorporation [4]: dramatic stimulation
